Source: PMC4979471 (Cell Death Discovery, 2015)
Like-named read-outs stand apart in the source and are kept apart here.

Tests used:
Assay in all cases: Kinase selectivity, P33-radiolabeled assay
Assay type in all cases: biochemical
Conditions in all cases: 10 μM ATP
ERK5/MAPK7 = biological target: T1, ERK5/MAPK7 (Homo sapiens, UniProt Q13164)
T1 construct: purchased Reaction Biology Corp
Procedure, shortened: (§1)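 Each enzyme was exposed to 10 μM compound, with duplicate measurements, in reactions containing 10 μM ATP. Numbers are remaining activity as a percent of the vehicle (DMSO) signal.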

IRAK1 = biological target: T2, IRAK1 (Homo sapiens, UniProt P51617)
T2 construct: purchased Reaction Biology Corp
T2 sequence (P51617 whole entry): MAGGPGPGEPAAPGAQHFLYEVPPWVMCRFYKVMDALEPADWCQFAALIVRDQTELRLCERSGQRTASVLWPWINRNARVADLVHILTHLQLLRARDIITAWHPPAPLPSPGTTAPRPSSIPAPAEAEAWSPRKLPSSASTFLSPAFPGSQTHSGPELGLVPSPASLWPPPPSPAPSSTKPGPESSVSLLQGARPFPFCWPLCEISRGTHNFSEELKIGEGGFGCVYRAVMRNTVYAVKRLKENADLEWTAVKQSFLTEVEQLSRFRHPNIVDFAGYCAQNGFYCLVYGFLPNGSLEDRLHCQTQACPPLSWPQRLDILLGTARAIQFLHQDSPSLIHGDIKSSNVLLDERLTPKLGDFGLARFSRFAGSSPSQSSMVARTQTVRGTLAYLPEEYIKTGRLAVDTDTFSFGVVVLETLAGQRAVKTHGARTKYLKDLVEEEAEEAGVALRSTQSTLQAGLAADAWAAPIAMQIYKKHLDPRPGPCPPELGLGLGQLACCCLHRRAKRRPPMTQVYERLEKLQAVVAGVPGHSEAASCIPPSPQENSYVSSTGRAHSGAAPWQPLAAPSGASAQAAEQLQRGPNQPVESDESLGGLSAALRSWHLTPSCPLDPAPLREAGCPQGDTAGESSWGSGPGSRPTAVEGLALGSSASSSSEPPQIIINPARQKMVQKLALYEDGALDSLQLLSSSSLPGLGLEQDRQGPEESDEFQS
Procedure, shortened: as §1

MEKK3 = biological target: T3, MEKK3 (Homo sapiens, UniProt Q99759)
T3 construct: purchased Reaction Biology Corp
T3 sequence (Q99759 1-626): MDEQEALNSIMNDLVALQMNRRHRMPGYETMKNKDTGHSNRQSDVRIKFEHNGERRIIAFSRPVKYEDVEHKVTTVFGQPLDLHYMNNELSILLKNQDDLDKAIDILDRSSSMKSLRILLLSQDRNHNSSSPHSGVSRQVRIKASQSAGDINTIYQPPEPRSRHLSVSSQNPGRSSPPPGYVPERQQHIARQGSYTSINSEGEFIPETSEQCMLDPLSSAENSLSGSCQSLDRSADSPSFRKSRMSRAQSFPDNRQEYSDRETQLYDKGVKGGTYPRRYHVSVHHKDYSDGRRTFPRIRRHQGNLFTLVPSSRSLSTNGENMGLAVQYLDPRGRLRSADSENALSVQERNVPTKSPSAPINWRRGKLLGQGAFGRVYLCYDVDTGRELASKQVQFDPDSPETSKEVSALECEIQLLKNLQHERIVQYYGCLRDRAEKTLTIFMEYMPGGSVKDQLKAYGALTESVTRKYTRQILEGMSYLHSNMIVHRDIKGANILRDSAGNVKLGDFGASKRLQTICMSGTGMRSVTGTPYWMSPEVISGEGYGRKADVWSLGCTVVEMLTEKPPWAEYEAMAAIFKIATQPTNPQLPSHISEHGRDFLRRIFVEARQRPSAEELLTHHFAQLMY
Procedure, shortened: as §1

IKKa/CHUK = biological target: T4, IKKa/CHUK (Homo sapiens, UniProt O15111)
T4 construct: purchased Reaction Biology Corp
T4 sequence (O15111 1-745): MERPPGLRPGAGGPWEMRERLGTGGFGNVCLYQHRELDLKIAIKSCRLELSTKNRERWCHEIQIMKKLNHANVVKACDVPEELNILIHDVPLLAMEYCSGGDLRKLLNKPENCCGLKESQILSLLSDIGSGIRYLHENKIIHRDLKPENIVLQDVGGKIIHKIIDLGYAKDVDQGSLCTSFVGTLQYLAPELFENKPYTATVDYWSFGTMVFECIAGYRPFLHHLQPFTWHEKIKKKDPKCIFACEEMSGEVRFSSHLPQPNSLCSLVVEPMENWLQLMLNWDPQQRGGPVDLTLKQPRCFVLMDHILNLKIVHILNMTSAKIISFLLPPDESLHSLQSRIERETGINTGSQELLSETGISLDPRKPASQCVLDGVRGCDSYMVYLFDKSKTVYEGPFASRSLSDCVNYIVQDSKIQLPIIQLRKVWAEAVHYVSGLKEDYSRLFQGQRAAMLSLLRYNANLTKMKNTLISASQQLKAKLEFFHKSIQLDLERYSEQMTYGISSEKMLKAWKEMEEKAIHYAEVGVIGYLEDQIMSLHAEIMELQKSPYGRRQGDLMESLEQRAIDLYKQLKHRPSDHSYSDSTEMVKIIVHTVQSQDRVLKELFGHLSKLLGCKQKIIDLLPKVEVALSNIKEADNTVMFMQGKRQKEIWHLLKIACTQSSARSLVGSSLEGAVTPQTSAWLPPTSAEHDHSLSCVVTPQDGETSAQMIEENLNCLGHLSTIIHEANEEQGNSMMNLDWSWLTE
Procedure, shortened: as §1

CAMK1a = biological target: T5, CAMK1a (Homo sapiens, UniProt Q14012)
T5 construct: purchased Reaction Biology Corp
T5 sequence (Q14012 whole entry): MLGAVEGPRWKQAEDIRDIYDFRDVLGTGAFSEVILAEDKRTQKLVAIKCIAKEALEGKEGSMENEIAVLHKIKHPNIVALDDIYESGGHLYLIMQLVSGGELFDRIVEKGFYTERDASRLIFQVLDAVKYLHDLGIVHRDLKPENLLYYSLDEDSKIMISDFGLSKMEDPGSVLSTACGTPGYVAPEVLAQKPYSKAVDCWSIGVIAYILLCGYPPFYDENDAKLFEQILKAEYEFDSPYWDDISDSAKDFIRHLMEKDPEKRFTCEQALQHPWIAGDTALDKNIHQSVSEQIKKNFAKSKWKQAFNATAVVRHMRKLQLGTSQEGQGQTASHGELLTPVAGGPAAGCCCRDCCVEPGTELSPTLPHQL
Procedure, shortened: as §1

KHS/MAP4K5 = biological target: T6, KHS/MAP4K5 (Homo sapiens, UniProt Q9Y4K4)
T6 construct: purchased Reaction Biology Corp
T6 sequence (Q9Y4K4 whole entry): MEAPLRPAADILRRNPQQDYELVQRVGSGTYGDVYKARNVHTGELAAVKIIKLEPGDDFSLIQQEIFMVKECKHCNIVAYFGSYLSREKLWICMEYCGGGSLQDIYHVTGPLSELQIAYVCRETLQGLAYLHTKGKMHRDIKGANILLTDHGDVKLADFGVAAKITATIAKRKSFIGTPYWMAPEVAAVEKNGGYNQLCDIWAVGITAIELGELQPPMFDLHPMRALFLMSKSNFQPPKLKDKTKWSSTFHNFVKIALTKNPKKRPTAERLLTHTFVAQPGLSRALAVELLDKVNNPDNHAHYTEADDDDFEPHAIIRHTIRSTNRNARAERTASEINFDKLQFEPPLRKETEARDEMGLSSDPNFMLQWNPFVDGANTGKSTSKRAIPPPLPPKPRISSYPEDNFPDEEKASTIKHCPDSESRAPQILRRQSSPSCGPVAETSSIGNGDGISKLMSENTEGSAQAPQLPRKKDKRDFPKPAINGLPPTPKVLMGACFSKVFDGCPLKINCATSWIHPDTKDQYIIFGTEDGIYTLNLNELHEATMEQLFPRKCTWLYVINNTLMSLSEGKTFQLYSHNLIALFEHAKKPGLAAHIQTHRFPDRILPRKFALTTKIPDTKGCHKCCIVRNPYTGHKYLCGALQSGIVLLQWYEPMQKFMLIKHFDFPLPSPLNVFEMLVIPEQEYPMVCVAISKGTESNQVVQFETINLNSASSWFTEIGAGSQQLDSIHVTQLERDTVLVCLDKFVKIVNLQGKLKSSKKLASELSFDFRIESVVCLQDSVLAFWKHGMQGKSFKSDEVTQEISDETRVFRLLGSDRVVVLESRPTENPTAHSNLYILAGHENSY
Procedure, shortened: as §1

PLK2 = biological target: T7, PLK2 (Homo sapiens, UniProt Q9NYY3)
T7 construct: purchased Reaction Biology Corp
T7 sequence (Q9NYY3 whole entry): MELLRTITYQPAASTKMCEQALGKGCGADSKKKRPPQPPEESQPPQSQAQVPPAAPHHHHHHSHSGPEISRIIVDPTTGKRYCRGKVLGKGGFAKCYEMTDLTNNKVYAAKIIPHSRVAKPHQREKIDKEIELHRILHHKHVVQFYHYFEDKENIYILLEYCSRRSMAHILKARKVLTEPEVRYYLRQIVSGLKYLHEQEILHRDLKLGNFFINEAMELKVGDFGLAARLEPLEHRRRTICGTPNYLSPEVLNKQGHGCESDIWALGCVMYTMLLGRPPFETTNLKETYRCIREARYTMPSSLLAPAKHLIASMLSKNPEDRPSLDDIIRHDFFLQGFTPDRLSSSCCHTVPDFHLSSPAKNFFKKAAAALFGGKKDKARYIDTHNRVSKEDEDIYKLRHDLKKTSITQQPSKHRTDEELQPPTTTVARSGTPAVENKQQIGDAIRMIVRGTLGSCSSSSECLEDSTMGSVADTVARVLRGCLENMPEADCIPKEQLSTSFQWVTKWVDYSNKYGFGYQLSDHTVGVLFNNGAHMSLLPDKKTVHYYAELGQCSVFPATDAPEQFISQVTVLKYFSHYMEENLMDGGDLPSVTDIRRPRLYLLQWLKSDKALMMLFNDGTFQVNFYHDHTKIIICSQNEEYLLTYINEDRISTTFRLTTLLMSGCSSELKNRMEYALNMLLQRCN
Procedure, shortened: as §1

RSK2 = biological target: T8, RSK2 (Homo sapiens, UniProt P51812)
T8 construct: purchased Reaction Biology Corp
T8 sequence (P51812 whole entry): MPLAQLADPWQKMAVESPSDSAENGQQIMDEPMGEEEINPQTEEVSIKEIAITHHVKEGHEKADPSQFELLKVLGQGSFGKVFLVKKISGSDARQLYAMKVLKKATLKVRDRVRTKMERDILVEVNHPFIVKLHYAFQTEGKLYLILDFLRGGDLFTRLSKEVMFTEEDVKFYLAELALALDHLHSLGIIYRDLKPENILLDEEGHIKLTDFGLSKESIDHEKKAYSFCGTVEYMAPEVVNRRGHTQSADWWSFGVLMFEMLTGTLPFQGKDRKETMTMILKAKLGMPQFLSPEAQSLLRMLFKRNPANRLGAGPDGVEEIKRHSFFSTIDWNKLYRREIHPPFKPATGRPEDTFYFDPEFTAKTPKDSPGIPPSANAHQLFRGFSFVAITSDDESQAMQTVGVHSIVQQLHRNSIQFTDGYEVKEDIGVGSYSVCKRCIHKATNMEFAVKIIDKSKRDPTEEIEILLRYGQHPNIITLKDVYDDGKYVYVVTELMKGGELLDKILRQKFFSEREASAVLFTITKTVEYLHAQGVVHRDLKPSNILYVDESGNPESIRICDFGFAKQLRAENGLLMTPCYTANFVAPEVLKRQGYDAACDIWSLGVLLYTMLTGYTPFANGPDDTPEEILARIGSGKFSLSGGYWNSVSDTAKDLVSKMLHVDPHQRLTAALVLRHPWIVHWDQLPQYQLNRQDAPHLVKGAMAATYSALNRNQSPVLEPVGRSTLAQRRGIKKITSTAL
Procedure, shortened: as §1

ALK1/ACVRL1 = biological target: T9, ALK1/ACVRL1 (Homo sapiens, UniProt P37023)
T9 construct: purchased Reaction Biology Corp
T9 sequence (P37023 22-503): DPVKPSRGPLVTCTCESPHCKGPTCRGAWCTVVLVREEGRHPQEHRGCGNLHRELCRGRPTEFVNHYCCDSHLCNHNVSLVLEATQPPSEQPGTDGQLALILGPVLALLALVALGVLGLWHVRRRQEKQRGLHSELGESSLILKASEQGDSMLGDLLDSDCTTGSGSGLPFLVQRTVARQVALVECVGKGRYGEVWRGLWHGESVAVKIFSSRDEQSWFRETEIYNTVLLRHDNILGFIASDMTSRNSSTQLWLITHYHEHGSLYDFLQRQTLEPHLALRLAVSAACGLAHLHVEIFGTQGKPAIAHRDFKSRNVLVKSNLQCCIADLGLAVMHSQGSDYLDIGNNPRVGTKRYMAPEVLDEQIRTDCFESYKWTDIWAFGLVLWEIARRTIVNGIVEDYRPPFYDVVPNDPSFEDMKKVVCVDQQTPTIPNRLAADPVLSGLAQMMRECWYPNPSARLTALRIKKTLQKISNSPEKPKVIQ
Procedure, shortened: as §1

[1] = read-out: % Enzyme Activity (relative to DMSO controls) AVG
[2] = read-out: % Enzyme Activity (relative to DMSO controls) Data 1
[3] = read-out: % Enzyme Activity (relative to DMSO controls) Data 2

T1 sequence (Q13164 whole entry): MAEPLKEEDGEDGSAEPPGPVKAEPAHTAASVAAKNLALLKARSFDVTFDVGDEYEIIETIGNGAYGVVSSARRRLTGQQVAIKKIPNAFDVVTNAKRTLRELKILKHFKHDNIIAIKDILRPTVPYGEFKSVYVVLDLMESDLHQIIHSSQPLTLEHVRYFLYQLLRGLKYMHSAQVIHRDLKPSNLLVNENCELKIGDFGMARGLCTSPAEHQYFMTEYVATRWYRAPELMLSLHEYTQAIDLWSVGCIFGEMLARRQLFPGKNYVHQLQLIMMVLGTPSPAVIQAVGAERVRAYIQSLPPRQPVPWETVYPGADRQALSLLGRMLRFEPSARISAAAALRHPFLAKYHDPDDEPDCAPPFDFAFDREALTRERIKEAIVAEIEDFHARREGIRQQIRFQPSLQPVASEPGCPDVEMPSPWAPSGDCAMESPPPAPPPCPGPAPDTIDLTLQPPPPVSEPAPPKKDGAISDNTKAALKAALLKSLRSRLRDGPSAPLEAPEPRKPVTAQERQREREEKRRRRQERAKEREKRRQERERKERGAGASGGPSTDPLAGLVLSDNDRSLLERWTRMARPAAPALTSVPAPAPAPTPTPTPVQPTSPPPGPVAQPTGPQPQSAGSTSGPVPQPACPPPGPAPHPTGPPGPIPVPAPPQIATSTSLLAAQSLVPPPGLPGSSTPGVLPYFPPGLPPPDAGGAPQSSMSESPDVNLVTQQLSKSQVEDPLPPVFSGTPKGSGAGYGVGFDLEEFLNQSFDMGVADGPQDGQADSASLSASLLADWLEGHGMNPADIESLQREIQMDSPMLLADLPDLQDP

Q: With CC(C)(C)C(=O)N1N=CC[C@H]1c1ccccc1 [GSK′963] as the molecule, how does the remaining activity at 10 µM (ERK5/MAPK7; [1]) read?
A: Its remaining activity at 10 µM is 97.8%.

Q: And the remaining activity at 10 µM (ERK5/MAPK7; [2])?
A: The remaining activity at 10 µM was 95.5%.

Q: And the remaining activity at 10 µM (ERK5/MAPK7; [3])?
A: The remaining activity at 10 µM was 100%.

Q: What about the remaining activity at 10 µM (IRAK1; [1]) of the same molecule?
A: The remaining activity at 10 µM was 115%.

Q: What about the remaining activity at 10 µM (IRAK1; [2]) of the same molecule?
A: The remaining activity at 10 µM was 114%.

Q: And the remaining activity at 10 µM (IRAK1; [3])?
A: The remaining activity at 10 µM was 116%.

Q: And the remaining activity at 10 µM (MEKK3; [1])?
A: Its remaining activity at 10 µM is 119%.

Q: And the remaining activity at 10 µM (MEKK3; [2])?
A: Its remaining activity at 10 µM is 122%.

Q: And the remaining activity at 10 µM (MEKK3; [3])?
A: The remaining activity at 10 µM was 115%.

Q: And the remaining activity at 10 µM (IKKa/CHUK; [1])?
A: Its remaining activity at 10 µM is 89.5%.

Q: What about the remaining activity at 10 µM (IKKa/CHUK; [2]) of the same molecule?
A: Its remaining activity at 10 µM is 91.1%.

Q: What about the remaining activity at 10 µM (IKKa/CHUK; [3]) of the same molecule?
A: Its remaining activity at 10 µM is 88%.

Q: What about the remaining activity at 10 µM (CAMK1a; [1]) of the same molecule?
A: Its remaining activity at 10 µM is 96.3%.

Q: What about the remaining activity at 10 µM (CAMK1a; [2]) of the same molecule?
A: Its remaining activity at 10 µM is 99.3%.

Q: And the remaining activity at 10 µM (CAMK1a; [3])?
A: Its remaining activity at 10 µM is 93.3%.

Q: And the remaining activity at 10 µM (KHS/MAP4K5; [1])?
A: Its remaining activity at 10 µM is 93.8%.

Q: And the remaining activity at 10 µM (KHS/MAP4K5; [2])?
A: The remaining activity at 10 µM was 91.7%.

Q: And the remaining activity at 10 µM (KHS/MAP4K5; [3])?
A: Its remaining activity at 10 µM is 96%.

Q: What about the remaining activity at 10 µM (PLK2; [1]) of the same molecule?
A: The remaining activity at 10 µM was 110%.

Q: And the remaining activity at 10 µM (PLK2; [2])?
A: Its remaining activity at 10 µM is 108%.

Q: And the remaining activity at 10 µM (PLK2; [3])?
A: Its remaining activity at 10 µM is 111%.

Q: What about the remaining activity at 10 µM (RSK2; [1]) of the same molecule?
A: The remaining activity at 10 µM was 106%.

Q: What about the remaining activity at 10 µM (RSK2; [2]) of the same molecule?
A: The remaining activity at 10 µM was 107%.

Q: What about the remaining activity at 10 µM (RSK2; [3]) of the same molecule?
A: Its remaining activity at 10 µM is 106%.

Q: And the remaining activity at 10 µM (ALK1/ACVRL1; [1])?
A: Its remaining activity at 10 µM is 97.7%.

Q: What about the remaining activity at 10 µM (ALK1/ACVRL1; [2]) of the same molecule?
A: The remaining activity at 10 µM was 104%.

Q: And the remaining activity at 10 µM (ALK1/ACVRL1; [3])?
A: Its remaining activity at 10 µM is 91.2%.
